pIC50: −log10 of the molar value. Values joined by “and” are separate entries in the source; they are usually repeats but may differ in a detail not shown here. Equal entries are not always repeated.
Target: T1, Recombinant human TPH1 (MBP tagged) (Homo sapiens, UniProt P17752)
T1 construct: cloning full length human TPH1 cDNA in to a bacterial pMAL-c5E expression vector; made in house; host or cells: E. coli BL21 (DE3)
T1 sequence (P17752 1-444): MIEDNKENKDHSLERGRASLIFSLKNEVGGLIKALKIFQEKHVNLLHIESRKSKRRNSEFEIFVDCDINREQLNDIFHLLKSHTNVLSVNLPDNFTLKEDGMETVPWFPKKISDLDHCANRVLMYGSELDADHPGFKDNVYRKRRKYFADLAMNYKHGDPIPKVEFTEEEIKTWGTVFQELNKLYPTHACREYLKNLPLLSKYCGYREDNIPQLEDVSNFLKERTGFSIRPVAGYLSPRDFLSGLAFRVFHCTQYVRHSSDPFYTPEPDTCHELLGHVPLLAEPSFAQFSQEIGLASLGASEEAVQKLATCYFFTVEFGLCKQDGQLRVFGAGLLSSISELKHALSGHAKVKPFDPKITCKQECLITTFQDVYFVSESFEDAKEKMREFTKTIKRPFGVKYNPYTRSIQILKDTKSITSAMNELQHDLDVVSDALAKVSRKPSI
Assay: TPH1 in vitro inhibition assay (kinetic fluorescence)
Assay type: biochemical
Conditions: read-out: TPH1 Range (TPH1 inhibition IC50)
Text: Recombinant human TPH1 (rTPH1 GenBank™ accession no. NP_004179) was expressed by cloning full length human TPH1 cDNA in to a bacterial pMAL-c5E expression vector to produce maltose-binding protein (MBP) TPH1 fusion proteins. E. coli BL21 (DE3) containing pMAL-c5E-TPH1 was used for protein generation and the recombinant protein was purified utilizing standard column chromatography techniques. The MBP tagged TPH1 (MBP-TPH1) was used directly to screen compounds as described below. Recombinant human TPH2 (rTPH2 GenBank™ accession no. 173353), PheOH (rPheOH GenBank™ accession no. K03020) and TH (rTH GenBank™ accession no. L20679) with an MBP tag were produced similarly.
TPH1 activities were measured in an assay containing 200 mM ammonium sulfate, 7 mM DTT, 50 μg/mL catalase, 25 μM ammonium iron sulfate, 50 mM MES, pH 7.1. Test compounds were diluted in 100% DMSO and added to the assay plate in 1 μL aliquots at 100× final concentration. Fifty microliters of assay buffer containing 30 nM TPH1 enzyme (MBP tagged) were added to the plate wells containing the test compound by the use of an Eppendorf repeater pipette. The reaction was initiated by the addition of 50 μL of assay buffer containing 60 μM tryptophan and 72 μM 6-6-methyltetra-hydropterin (2× final concentration) by the use of a Multidrop (LabSystems). Final reaction conditions were 15 nM TPH1 enzyme, 30 μM tryptophan, 36 μM 6-methyltetra-hydropterin, 200 mM ammonium sulfate, 7 mM DTT, […], 25 μM ferrous ammonium sulfate, 50 mM MES, pH 7.1, with atmospheric oxygen at room temperature. The plate was immediately placed onto an M5 plate reader (Molecular Devices) for kinetic fluorescence measurement using an excitation setting of 300 nm and an emission setting of 335 nm. Fluorescence reads are recorded in kinetic mode for 300 seconds (5 minutes).
Kinetic assay data for compounds at specific concentrations was translated into slopes using the Softmax Pro software on a Spectramax reader, and compound inhibition slopes were compared with wells containing enzyme, substrate and cofactor in the absence of inhibitor (100%), and wells containing substrate and cofactor in the absence of enzyme (0%). DMSO concentration in the assay was 1%. […] IC50's were determined using Graphpad Prism.

Compound `Cc1ccn(-c2cc(-c3ccc(F)c(Cl)c3)ccc2[C@@H](Oc2cc(N3CCC4(CC3)CN[C@H](C(=O)O)C4)nc(N)n2)C(F)(F)F)n1` [Example 1ar, (S)-8-(2-amino-6-((R)-1-(3′-chloro-4′-fluoro-3-(3-methyl-1H-pyrazol-1-yl)-[1,1′-biphenyl]-4-yl)-2,2,2-trifluoroethoxy)pyrimidin-4-yl)-2,8-diazaspiro[4.5]decane-3-carboxylic acid] has a pIC50 of 6.52 to 7.30.
`Cc1ccn(-c2cc(-c3cccc(OC(F)(F)F)c3)ccc2[C@@H](Oc2cc(N3CCC4(CC3)CN[C@H](C(=O)O)C4)nc(N)n2)C(F)(F)F)n1` [Example 1as, (S)-8-(2-amino-6-((R)-2,2,2-trifluoro-1-(3-(3-methyl-1H-pyrazol-1-yl)-3'-(trifluoromethoxy)-[1,1′-biphenyl]-4-yl)ethoxy)pyrimidin-4-yl)-2,8-diazaspiro[4.5]decane-3-carboxylic acid] showed a pIC50 greater than 7.30.
For `Cc1cc(C)cc(-c2ccc([C@@H](Oc3cc(N4CCC5(CC4)CN[C@H](C(=O)O)C5)nc(N)n3)C(F)(F)F)c(-n3ccc(C)n3)c2)c1` [Example 1at, (S)-8-(2-amino-6-((R)-1-(3′,5′-dimethyl-3-(3-methyl-1H-pyrazol-1-yl)-[1,1′-biphenyl]-4-yl)-2,2,2-trifluoroethoxy)pyrimidin-4-yl)-2,8-diazaspiro[4.5]decane-3-carboxylic acid], the pIC50 was greater than 7.30.
`Cc1ccn(-c2cc(-c3ccc(F)c(F)c3)ccc2[C@@H](Oc2cc(N3CCC4(CC3)CN[C@H](C(=O)O)C4)nc(N)n2)C(F)(F)F)n1` [Example 1au, (S)-8-(2-amino-6-((R)-1-(3′,4′-difluoro-3-(3-methyl-1H-pyrazol-1-yl)-[1,1′-biphenyl]-4-yl)-2,2,2-trifluoroethoxy)pyrimidin-4-yl)-2,8-diazaspiro[4.5]decane-3-carboxylic acid] was tested, and the pIC50 was 6.52 to 7.30.
Work on `Cc1ccn(-c2cc(-c3ccc(F)c(C(F)(F)F)c3)ccc2[C@@H](Oc2cc(N3CCC4(CC3)CN[C@H](C(=O)O)C4)nc(N)n2)C(F)(F)F)n1` [Example 1aw, (S)-8-(2-amino-6-((R)-2,2,2-trifluoro-1-(4′-fluoro-3-(3-methyl-1H-pyrazol-1-yl)-3′-(trifluoromethyl)-[1,1′-biphenyl]-4-yl)ethoxy)pyrimidin-4-yl)-2,8-diazaspiro[4.5]decane-3-carboxylic acid] yielded a pIC50 of 6.52 to 7.30.
In the case of `Cc1ccn(-c2cc(-c3ccc(OC(C)C)c(F)c3)ccc2[C@@H](Oc2cc(N3CCC4(CC3)CN[C@H](C(=O)O)C4)nc(N)n2)C(F)(F)F)n1` [Example 1ax, (S)-8-(2-amino-6-((R)-2,2,2-trifluoro-1-(3′-fluoro-4′-isopropoxy-3-(3-methyl-1H-pyrazol-1-yl)-[1,1′-biphenyl]-4-yl)ethoxy)pyrimidin-4-yl)-2,8-diazaspiro[4.5]decane-3-carboxylic acid], the pIC50 was greater than 7.30.
For `CCOc1cc(F)cc(-c2ccc([C@@H](Oc3cc(N4CCC5(CC4)CN[C@H](C(=O)O)C5)nc(N)n3)C(F)(F)F)c(-n3ccc(C)n3)c2)c1` [Example 1ay, (S)-8-(2-amino-6-((R)-1-(3′-ethoxy-5′-fluoro-3-(3-methyl-1H-pyrazol-1-yl)-[1,1′-biphenyl]-4-yl)-2,2,2-trifluoroethoxy)pyrimidin-4-yl)-2,8-diazaspiro[4.5]decane-3-carboxylic acid], the pIC50 was > 7.30 and 6.52 to 7.30.
In the case of `Cc1ccn(-c2cc(-c3cccc(C(C)(C)C)c3)ccc2[C@@H](Oc2cc(N3CCC4(CC3)CN[C@H](C(=O)O)C4)nc(N)n2)C(F)(F)F)n1` [Example 1az, (S)-8-(2-amino-6-((R)-1-(3′-(tert-butyl)-3-(3-methyl-1H-pyrazol-1-yl)-[1,1′-biphenyl]-4-yl)-2,2,2-trifluoroethoxy)pyrimidin-4-yl)-2,8-diazaspiro[4.5]decane-3-carboxylic acid], the pIC50 was 6.52 to 7.30.
With `CSc1ccc(-c2ccc([C@@H](Oc3cc(N4CCC5(CC4)CN[C@H](C(=O)O)C5)nc(N)n3)C(F)(F)F)c(-n3ccc(C)n3)c2)cc1` [Example 1b, (S)-8-(2-amino-6-((R)-2,2,2-trifluoro-1-(3-(3-methyl-1H-pyrazol-1-yl)-4′-(methylthio)-[1,1′-biphenyl]-4-yl)ethoxy)pyrimidin-4-yl)-2,8-diazaspiro[4.5]decane-3-carboxylic acid] the pIC50 was greater than 7.30.
With `Cc1ccn(-c2cc(-c3ccc(F)c(C)c3)ccc2[C@@H](Oc2cc(N3CCC4(CC3)CN[C@H](C(=O)O)C4)nc(N)n2)C(F)(F)F)n1` [Example 1ba, (S)-8-(2-amino-6-((R)-2,2,2-trifluoro-1-(4′-fluoro-3′-methyl-3-(3-methyl-1H-pyrazol-1-yl)-[1,1′-biphenyl]-4-yl)ethoxy)pyrimidin-4-yl)-2,8-diazaspiro[4.5]decane-3-carboxylic acid] the pIC50 was greater than 7.30.
Work on `Cc1ccn(-c2cc(-c3cccc(C(C)C)c3)ccc2[C@@H](Oc2cc(N3CCC4(CC3)CN[C@H](C(=O)O)C4)nc(N)n2)C(F)(F)F)n1` [Example 1bb, (S)-8-(2-amino-6-((R)-2,2,2-trifluoro-1-(3′-isopropyl-3-(3-methyl-1H-pyrazol-1-yl)-[1,1′-biphenyl]-4-yl)ethoxy)pyrimidin-4-yl)-2,8-diazaspiro[4.5]decane-3-carboxylic acid] yielded a pIC50 greater than 7.30.
Work on `Cc1ccn(-c2cc(-c3cccc(OC(C)C)c3)ccc2[C@@H](Oc2cc(N3CCC4(CC3)CN[C@H](C(=O)O)C4)nc(N)n2)C(F)(F)F)n1` [Example 1bc, (S)-8-(2-amino-6-((R)-2,2,2-trifluoro-1-(3′-isopropoxy-3-(3-methyl-1H-pyrazol-1-yl)-[1,1′-biphenyl]-4-yl)ethoxy)pyrimidin-4-yl)-2,8-diazaspiro[4.5]decane-3-carboxylic acid] yielded a pIC50 greater than 7.30.
In the case of `Cc1ccn(-c2cc(-c3ccc(Cl)c(C)c3)ccc2[C@@H](Oc2cc(N3CCC4(CC3)CN[C@H](C(=O)O)C4)nc(N)n2)C(F)(F)F)n1` [Example 1bd, (S)-8-(2-amino-6-((R)-1-(4′-chloro-3′-methyl-3-(3-methyl-1H-pyrazol-1-yl)-[1,1′-biphenyl]-4-yl)-2,2,2-trifluoroethoxy)pyrimidin-4-yl)-2,8-diazaspiro[4.5]decane-3-carboxylic acid], the pIC50 was greater than 7.30.
`Cc1ccn(-c2cc(-c3cccc(C(N)=O)c3)ccc2[C@@H](Oc2cc(N3CCC4(CC3)CN[C@H](C(=O)O)C4)nc(N)n2)C(F)(F)F)n1` [Example 1be, (S)-8-(2-amino-6-((R)-1-(3′-carbamoyl-3-(3-methyl-1H-pyrazol-1-yl)-[1,1′-biphenyl]-4-yl)-2,2,2-trifluoroethoxy)pyrimidin-4-yl)-2,8-diazaspiro[4.5]decane-3-carboxylic acid] gave a pIC50 of 6.52 to 7.30.
`Cc1ccn(-c2cc(-c3cc(C(F)(F)F)cc(C(F)(F)F)c3)ccc2[C@@H](Oc2cc(N3CCC4(CC3)CN[C@H](C(=O)O)C4)nc(N)n2)C(F)(F)F)n1` [Example 1bf, (S)-8-(2-amino-6-((R)-2,2,2-trifluoro-1-(3-(3-methyl-1H-pyrazol-1-yl)-3′,5′-bis(trifluoromethyl)-[1,1′-biphenyl]-4-yl)ethoxy)pyrimidin-4-yl)-2,8-diazaspiro[4.5]decane-3-carboxylic acid] gave a pIC50 of 6.52 to 7.30.
Work on `CCOc1cc(-c2ccc([C@@H](Oc3cc(N4CCC5(CC4)CN[C@H](C(=O)O)C5)nc(N)n3)C(F)(F)F)c(-n3ccc(C)n3)c2)ccc1F` [Example 1bg, (S)-8-(2-amino-6-((R)-1-(3′-ethoxy-4′-fluoro-3-(3-methyl-1H-pyrazol-1-yl)-[1,1′-biphenyl]-4-yl)-2,2,2-trifluoroethoxy)pyrimidin-4-yl)-2,8-diazaspiro[4.5]decane-3-carboxylic acid] yielded a pIC50 greater than 7.30.
Compound `Cc1ccn(-c2cc(-c3cc(C)c(Cl)c(C)c3)ccc2[C@@H](Oc2cc(N3CCC4(CC3)CN[C@H](C(=O)O)C4)nc(N)n2)C(F)(F)F)n1` [Example 1bh, (S)-8-(2-amino-6-((R)-1-(4′-chloro-3′,5′-dimethyl-3-(3-methyl-1H-pyrazol-1-yl)-[1,1′-biphenyl]-4-yl)-2,2,2-trifluoroethoxy)pyrimidin-4-yl)-2,8-diazaspiro[4.5]decane-3-carboxylic acid] has a pIC50 greater than 7.30.

Source: patent US11759462B2, “Spirocyclic compounds as tryptophan hydroxylase inhibitors” (priority 2013, dated 2023)
